# Test results taken from PMC7910296, “Phosphorescent Ir(III) complexes conjugated with oligoarginine peptides serve as optical probes for in vivo microvascular imaging” (Scientific Reports, 2021).
# What was measured:
# vascular endothelium = test: In vivo luminescence intensity and lifetime imaging after intravenous administration
# [1] = Phosphorescence quantum yield (absolute photoluminescence quantum yield system); assay type: physicochemical; conditions: room temperature
# Description: (§1) Phosphorescence lifetimes were measured with a time-correlated single-photon counting fluorimeter (Quantaurus-Tau C11367G, Hamamatsu Photonics). A laser diode (M12488-35, Hamamatsu Photonics; 481 nm, pulse width 70 ps) was used as the excitation light source. The temperature of the sample solution was controlled by circulating water through a jacket cuvette holder from a temperature controlled bath (RTE7, Neslab). Phosphorescence quantum yields were determined on an absolute photoluminescence quantum yield measurement system (C9920-02, Hamamatsu Photonics) consisting of a Xe arc lamp, a monochromator, an integrating sphere, and a multichannel detector[41].
# [2] = Phosphorescence lifetime in solution (time-correlated single-photon counting); assay type: physicochemical; conditions: 37 °C
# Description: as §1
# [3] = Absorption and emission spectra; assay type: physicochemical; conditions: MeCN with 1% DMSO, room temperature
# Description: Absorption and emission spectra were recorded on a UV–Vis spectrophotometer (Ubest V-550, JASCO) and a photonic multichannel analyzer PMA-12 (C11027-01, Hamamatsu Photonics) equipped with a monochromatized Xe arc lamp, respectively. The emission spectra were fully corrected for spectral sensitivity.
# [4] = Water solubility / aggregate formation in aqueous solution; assay type: physicochemical
# Source text: Ir(III) complexes BTQ-Rn (n = 4, 8, 12, 16) with different lengths of arginine peptides in the ligand (Fig. 1) were obtained by chemical synthesis, including solid-phase synthesis of the peptides. The synthetic details and characterization of BTQ-Rn are described in Supplementary Information. We first examined the spectral and photophysical properties of the synthesized BTQ-Rn (n = 4, 8, 12, 16) in MeCN and Tris–HCl buffer (pH 7.0) and compared them to the parent complex BTQphen. Figure 2A,B show the absorption and emission spectra of BTQphen and BTQ-R12 (a representative BTQ-Rn) in MeCN. […] The first absorption band of BTQ-R12, which has a molar absorption coefficient of 7600 mol^−1 dm^3 cm^−1 at 496 nm, can be assigned to the singlet metal-to-ligand charge transfer (^1MLCT) transition. Emissions appear in the red to near-infrared region, with the maximum at around 660 nm, and show a very large Stokes shift. The emission decay profiles follow single-exponential functions, with lifetimes of 5.7 μs for BTQphen and 5.9 μs for BTQ-R12 in deaerated MeCN, and 0.28 μs for BTQphen and BTQ-R12 in aerated MeCN (Table 1). The extremely long lifetimes in deaerated solution and significant quenching by dissolved oxygen indicate that emission is due to phosphorescence. […]
"Φp, phosphorescence quantum yield ([1]; aerated MeCN)","Φp0, phosphorescence quantum yield ([1]; deaerated MeCN)","τp, phosphorescence lifetime ([2]; aerated MeCN) [µs]","τp0, phosphorescence lifetime ([2]; deaerated MeCN) [µs]",emission maximum [3],"aggregate formation ([4]; aqueous solution / Tris–HCl buffer (pH 7.0), from spectra and single-exponential decay)","water solubility ([4]; aqueous solution, in words)",Compound,"localization in liver (vascular endothelium; living mice, PC6S 50 nmol iv, fluorescence intensity images of liver)","localization in renal cortex (vascular endothelium; mouse kidney, about 1 h after intravenous administration (100 nmol; FITC-lectin 1 mg/mL, 50 μL), luminescence intensity images)"
,,,,,,,"CCN(CC)c1ccc2cc3cc(-c4nc5ccccc5s4)c(=O)oc3cc2c1 [PC6S, reference compound]",taken up into hepatocytes and likely accumulates in LDs and the ER,
0.015,0.32,0.28,5.7,around 660 nm,forms aggregates,extremely low water solubility,(btq)2Ir(phen-pipe) [BTQphen],,localized in tubular cells rather than in capillaries
